The record followed here is paper PMC2717050, “Evaluation of expression and function of the H^+/myo-inositol transporter HMIT” (BMC Cell Biology, 2009).

The target in experiment [1] is T1, HMIT triple mutant (H+/myo-inositol transporter) (Rattus norvegicus, UniProt Q921A2).
T1 construct: gene Slc2a13; stop codon deleted, C-terminal V5-His; pcDNA3.1/V5-His-TOPO; transient in HEK293/HEK293T cells
T1 sequence (Q921A2 1-637): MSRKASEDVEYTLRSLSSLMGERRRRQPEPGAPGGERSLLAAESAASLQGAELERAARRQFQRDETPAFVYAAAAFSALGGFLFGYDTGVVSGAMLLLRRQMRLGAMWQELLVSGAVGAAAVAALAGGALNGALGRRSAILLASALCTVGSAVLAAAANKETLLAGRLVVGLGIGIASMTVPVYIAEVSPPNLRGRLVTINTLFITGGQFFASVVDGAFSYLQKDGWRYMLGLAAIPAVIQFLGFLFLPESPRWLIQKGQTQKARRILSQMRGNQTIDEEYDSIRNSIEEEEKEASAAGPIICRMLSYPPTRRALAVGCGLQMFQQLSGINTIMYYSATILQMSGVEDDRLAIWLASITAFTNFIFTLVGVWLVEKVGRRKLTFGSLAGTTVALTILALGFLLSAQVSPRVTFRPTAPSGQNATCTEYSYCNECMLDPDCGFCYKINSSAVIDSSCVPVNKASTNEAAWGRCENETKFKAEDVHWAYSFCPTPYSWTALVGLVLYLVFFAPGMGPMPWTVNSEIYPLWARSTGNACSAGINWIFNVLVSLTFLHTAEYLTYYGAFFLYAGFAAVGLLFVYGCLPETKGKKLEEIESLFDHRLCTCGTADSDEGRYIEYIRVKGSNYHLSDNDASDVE
Description: whole-cell patch-clamp, inositol-evoked inward current. Type of experiment: cell-based. The conditions noted are these: extracellular pH 5.2; room temperature; Hill slope 1.0; transiently transfected HEK293/HEK293T cells. (Patch clamp records ionic current or voltage across a cell membrane.)

The target in experiment [2] is T1, HMIT triple mutant (H+/myo-inositol transporter). In words: [3H]-myo-inositol uptake in HEK293T cells. As to conditions: pH 6.0; 37 °C pre-incubation 10 min; 2 min uptake; non-selective inhibitor. Type of experiment: cell-based.

Each structure is given as a SMILES string.

In general, EC50 refers to the concentration that produces a half-maximal response. Lower therefore signals an effect from little substance. For `O[C@H]1[C@H](O)[C@@H](O)[C@H](O)[C@@H](O)[C@H]1O` [myo-inositol], a half-maximal effect in experiment [1] (EC50) was put at 2.7 mM.
What is called % inhibition is the drop in the measured response relative to a control, in per cent. On to `O=C(CCc1ccc(O)cc1)c1c(O)cc(O)cc1O[C@@H]1O[C@H](CO)[C@@H](O)[C@H](O)[C@H]1O` [phloridzin], for which the “% inhibition at 1 mM” value in experiment [2] worked out at 53 ± 1.4%.
